{
  "source": "patent US9371365B2",
  "about": "“Modified compstatin with peptide backbone and C-terminal modifications” (The Trustees of the University of Pennsylvania, priority 2009, dated 2016)",
  "key": {"[1]": {"tested_on": "classical pathway of complement", "assay": "Inhibition of classical pathway complement activation, ELISA in human serum", "assay_type": "biochemical", "details": "for pIC50: read-out: IC50", "description": "The ability of the compstatin analogs to inhibit the activation of the classical pathway of complement was assessed by ELISA (Mallik et al., 2005, J Med Chem 48:274-86). In brief, complement was activated in human serum using an antigen-antibody complex in the presence or absence of compstatin analogs, and the deposition of C3 fragments on the plate surface was detected using an HRP-conjugated polyclonal anti-C3 antibody. […] The percent inhibition was plotted against the peptide concentration, and the resulting data set was fitted to the logistic dose-response function using Origin 7.0 software. IC50 values were obtained from the fitted parameters that produced the lowest χ^2 value. Each analog was assayed at least three to seven times.\nThe ability of the compstatin analogs to inhibit the activation of the classical pathway of complement was assessed by ELISA as described in Example 1. Each conjugate was assayed at least three times."}, "C3b": {"biological_target": "T1, C3b (Homo sapiens, UniProt P01024)", "T1 construct": "biotin (chemical biotinylation of C3b)", "T1 sequence (P01024 23-667 limits assumed)": "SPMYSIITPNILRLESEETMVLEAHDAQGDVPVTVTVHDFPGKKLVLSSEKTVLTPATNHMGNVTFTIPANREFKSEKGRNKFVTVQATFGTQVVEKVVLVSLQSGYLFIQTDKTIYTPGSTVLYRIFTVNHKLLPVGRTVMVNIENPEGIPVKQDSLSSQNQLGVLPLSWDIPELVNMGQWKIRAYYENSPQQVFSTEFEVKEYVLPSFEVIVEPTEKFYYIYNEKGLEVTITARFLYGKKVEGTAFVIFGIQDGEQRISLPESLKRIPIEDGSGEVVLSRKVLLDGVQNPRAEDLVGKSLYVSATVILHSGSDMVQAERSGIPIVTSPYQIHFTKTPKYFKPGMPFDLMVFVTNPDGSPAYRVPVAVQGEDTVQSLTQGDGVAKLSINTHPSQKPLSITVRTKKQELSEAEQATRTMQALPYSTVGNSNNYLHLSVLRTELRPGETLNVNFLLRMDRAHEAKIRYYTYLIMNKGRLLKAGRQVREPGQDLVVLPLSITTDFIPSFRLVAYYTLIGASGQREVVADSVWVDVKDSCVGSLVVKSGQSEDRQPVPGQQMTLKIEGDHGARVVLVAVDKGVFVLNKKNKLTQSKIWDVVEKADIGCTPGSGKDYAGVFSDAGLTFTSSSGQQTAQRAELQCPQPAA", "T1 sequence (P01024 749-1663 limits assumed)": "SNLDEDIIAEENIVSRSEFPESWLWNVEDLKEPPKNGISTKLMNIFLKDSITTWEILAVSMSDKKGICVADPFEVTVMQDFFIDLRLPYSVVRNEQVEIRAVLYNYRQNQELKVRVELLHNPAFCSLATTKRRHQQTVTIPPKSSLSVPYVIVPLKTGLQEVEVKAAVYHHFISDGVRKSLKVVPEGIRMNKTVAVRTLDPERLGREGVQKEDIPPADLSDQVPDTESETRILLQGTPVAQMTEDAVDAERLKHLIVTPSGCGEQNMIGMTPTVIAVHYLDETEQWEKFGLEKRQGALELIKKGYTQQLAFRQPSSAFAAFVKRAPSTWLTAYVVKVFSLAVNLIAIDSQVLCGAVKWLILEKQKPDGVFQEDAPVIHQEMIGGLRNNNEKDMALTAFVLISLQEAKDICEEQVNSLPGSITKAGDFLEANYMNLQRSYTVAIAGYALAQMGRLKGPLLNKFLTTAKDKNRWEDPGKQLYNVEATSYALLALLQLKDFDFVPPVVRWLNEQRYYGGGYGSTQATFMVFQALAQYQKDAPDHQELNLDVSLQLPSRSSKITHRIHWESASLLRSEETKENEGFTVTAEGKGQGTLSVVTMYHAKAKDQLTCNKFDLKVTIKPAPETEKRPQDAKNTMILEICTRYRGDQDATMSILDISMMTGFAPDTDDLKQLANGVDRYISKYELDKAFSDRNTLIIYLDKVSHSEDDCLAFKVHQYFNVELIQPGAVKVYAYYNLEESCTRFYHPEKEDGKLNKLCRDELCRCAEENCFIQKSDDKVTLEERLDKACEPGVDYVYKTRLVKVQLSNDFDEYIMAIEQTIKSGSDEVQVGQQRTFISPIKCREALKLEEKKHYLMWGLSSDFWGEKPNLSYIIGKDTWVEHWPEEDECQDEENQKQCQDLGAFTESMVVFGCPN", "assay": "SPR analysis of binding kinetics to immobilized C3b", "description": "(§1) The kinetics of the interaction between C3b and each compstatin analog was analyzed by SPR on a Biacore 3000 instrument (GE Healthcare Corp., Piscataway, N.J.) at 25° C. using PBS-T (10 mM sodium phosphate, 150 mM NaCl, 0.005% Tween-20, pH 7.4) as the running buffer, as described above. In brief, biotinylated C3b (30 μg/mL) was immobilized on a streptavidin-coated sensor chip, and a two-fold serial dilution series (1 μM-500 pM) of each analog was injected for 2 min at 30 μl/min, with a dissociation phase of 5-10 min. Peptide [Trp(Me)^4]-Ac-compstatin was included in each experimental series as an internal control and reference. Data analysis was performed using Scrubber (BioLogic Software, Campbell, Australia). The signals from an untreated flow cell and an ensemble of buffer blank injections were subtracted to correct for buffer effects and injection artifacts. Processed biosensor data were globally fitted to a 1:1 Langmuir binding model, and the equilibrium dissociation constant (KD) was calculated from the equation KD=kd/ka. Peptide solutions were injected in duplicate in every experiment, and each screening assay was performed at least twice.\nas §1, with “in Example 1.” for “above.”, “μg/ml)” for “μg/mL)”, “Peptide [Trp(Me)^4]-Ac-compstatin was included in each experimental series as an internal control and reference.” left out"}},
  "note": "pIC50: −log10 of the molar value. Like-named read-outs stand apart in the source and are kept apart here.",
  "data": [
    {"molecule": "CC[C@H](C)[C@H](NC(=O)[C@@H]1CSSC[C@H](NC(=O)[C@@H](NC(C)=O)[C@@H](C)CC)C(=O)N[C@@H](C(C)C)C(=O)N[C@@H](Cc2cn(C)c3ccccc23)C(=O)N[C@@H](CCC(N)=O)C(=O)N[C@@H](CC(=O)O)C(=O)N[C@@H](Cc2c[nH]c3ccccc23)C(=O)N(C)CC(=O)N[C@@H](C)C(=O)N[C@@H](Cc2c[nH]cn2)C(=O)N[C@@H](CCCNC(=N)N)C(=O)N1)C(N)=O", "note": "[Peptide 17, Ac−Ic[CV(^1−MeW)QDW(^N−MeG)AHRC]I-NH2]", "values": [
      {"measurement": "pIC50", "setting": "[1]; Table 1-2", "result": 7.04},
      {"measurement": "IC50", "setting": "[1]; classical pathway, human serum, Table 2-1, read-out: IC50 (nM, CP)", "result": 92, "unit": "nM"},
      {"measurement": "pIC50", "setting": "[1]; exemplary analogs table", "result": 7.04},
      {"measurement": "rP", "setting": "[1]; relative potency compared to peptide 14", "result": 2.2},
      {"measurement": "IC50 (fold change)", "setting": "[1]; relative to peptide 17", "result": 1},
      {"measurement": "fold stronger affinity than peptide 14", "setting": "C3b; SPR", "result": 2.7, "unit": "fold"},
      {"measurement": "kd", "setting": "C3b; SPR, 25° C., PBS-T", "result": "6.6 10^−3/s"},
      {"measurement": "Koff", "setting": "C3b; SPR, Table 2-1", "result": "6.6 10^−3, s^−1"},
      {"measurement": "Kon", "setting": "C3b; SPR, Table 2-1", "result": "1.0 10^6, M^−1 · s^−1"},
      {"measurement": "kon", "setting": "C3b; pH 7.4, read-out: ka", "result": "1.5e+06", "unit": "M⁻¹ s⁻¹"},
      {"measurement": "rKD SPR", "setting": "C3b; relative to peptide 14", "result": 2.7},
      {"measurement": "rka", "setting": "C3b; relative to peptide 14", "result": 1.5},
      {"measurement": "rkd", "setting": "C3b; relative to peptide 14", "result": 1.7}
    ]}
  ]
}
